Consider 15 compounds from patent US10584115B2, “Substituted pyridine and pyrazine BMI-1 inhibitors” (PTC Therapeutics, Inc., priority 2013, dated 2020).

Structures are written as SMILES.

The test system of one experiment is Bmi-1 protein. Description: Sandwich ELISA Assay (Bmi-1 protein level in HT-1080 cells after compound treatment). The class given is cell-based. As to conditions: Table 1, Bmi-1 sandwich ELISA, read-out: ELISA EC50 value for Bmi-1 protein. The method, then: Cell Seeding and Compound Treatment (Day 1):
HT-1080 cells were seeded at 8000 cells/well (50 μL) in 96-well tissue culture plates. After the cells became adherent (3-4 hours), 2× diluted stocks of test compounds in 50 μL DMEM containing 1% DMSO (final DMSO concentration was 0.5%) were added and the plates were incubated at 37° C. under 5% CO2 for 40-48 hours.
ELISA Plate First Antibody Preparation (Day 2):
The First Antibody (Millipore Mouse, monoclonal to mouse Bmi-1, clone F6, catalog #05-637) diluted to […] in PBS was added (100 μL) to each well of a Nunc MaxiSorp 96-well ELISA plate. The plate was covered with a plate seal and allowed to stand overnight.
Cell Lysate Preparation (Day 3):
Fresh Lysis buffer (1×) was prepared on the day of the assay as follows: 1 mM EDTA, 150 mM NaCl, 0.5% Triton-X 100, 10 mM NaF, 20 mM B-Glycerophosphate, 1 mM DTT (in PBS, pH 7.2-7.4) and HALT protease inhibitor cocktail (lx) (Pierce #78410).
A standard curve was prepared at the following Bmi-1 concentrations: 8000, 4000, 2000, 1000, 500, 250, 125 and 0 pg/mL. The Bmi-1 Recombinant Protein Standard (Novus Biologicals PCGF4 Recombinant Protein (P01), catalog # H00000648-P01) used to prepare the standard curve was stored at −80° C. On first thaw, the Recombinant Protein Standard was diluted to 10 μg/L in Blocking Buffer (1% BSA in PBS; BSA: Fisher Scientific Catalog #1600-100). Aliquots were taken and refrozen at −80° C. The aliquots may be kept at 4° C. and reused after first thaw, but only within 1-2 weeks. The Recombinant Protein Standard contains a GST-fusion tag that appears at approximately 70 Kda on Western Blot.
The prepared ELISA plate was washed 3× with Wash Buffer (0.05% Tween-20 in PBS). The final wash was removed from the plate and the plate was blotted dry. Blocking Buffer (300 μL) (1% BSA in PBS) was added to each well. The plate was covered with a plate seal and incubated at room temperature for 1 hour. The blocked plate was washed 3× with Wash Buffer, then the final wash was removed and the plate was blotted dry. The previously prepared samples and standards were added ([…]) and the plate was covered with a plate seal and incubated at 4° C. overnight.
The prepared ELISA plate was removed from incubation and allowed to stand at room temperature for 30 minutes, then washed and blotted dry. The Second Antibody (Cell Signaling Rabbit anti-Bmi-1, Cat #2830) diluted to 1:600 in Blocking Buffer was added (100 μL) to each well, except as needed for background control wells. The plate was covered with a plate seal and incubated for 1.5 hrs at room temperature.
The ELISA plate was washed and blotted dry as previously described. The Third Antibody (Cell Signaling HRP conjugated anti-rabbit IgG (CellSignaling, Cat #:7074) diluted to 1:300 in Blocking Buffer was added (100 μL) to each well, except as needed for background control wells. The plate was incubated for 1 hr at room temperature.
The plate was washed and blotted dry, then a previously prepared TMB substrate (TMB substrate kit, Pierce catalog #34021) (prepared by mixing kit reagents 1:1) (100 μL) was added per well. The plate was incubated for 20-30 minutes at room temperature in the dark, then Stop Solution (2 M sulfuric acid in water) (50 μL) was added per well. The plates were read at OD450 (experimental) and OD570 (reference).
For orientation: EC50 means the concentration that produces a half-maximal response. As for `CC(N)c1ccc(Nc2cc(C#N)cc(-c3c(C(F)(F)F)nc4ccccn34)n2)cc1` (stereo not drawn) [Cpd 257, 2-(4-(1-aminoethyl)phenylamino)-6-(2-(trifluoromethyl)imidazo[1,2-a]pyridin-3-yl)isonicotinonitrile], the EC50 fell in the range of 100 to 3000 nM.

`Nc1cc(Nc2ccc(C(F)(F)F)cc2)nc(-c2c(C(F)(F)F)nc3ccccn23)c1` [compound 159, 6-[2-(trifluoromethyl)imidazo[1,2-a]pyridin-3-yl]-N^2-[4-(trifluoromethyl)phenyl]pyridine-2,4-diamine]: the concentration for a half-maximal effect (EC50) is 1 to 10 nM.

As to `Cc1nn(C)c(Cl)c1-c1cncc(Nc2ccc(OC(F)(F)F)cc2)n1` [compound 414, 6-(5-chloro-1,3-dimethyl-1H-pyrazol-4-yl)-N-[4-(trifluoromethoxy)phenyl]pyrazin-2-amine], the EC50 lay in the range of 10 to 100 nM.

On to `Cc1nc2cc(F)c(F)cc2n1-c1cccc(Nc2ccc(C(F)(F)F)cc2)n1` [compound 601, 6-(5,6-difluoro-2-methyl-1H-benzimidazol-1-yl)-N-[4-(trifluoromethyl)phenyl]pyridin-2-amine], for which the 50% effective concentration (EC50) lay within 10 to 100 nM.

For `CSc1nc2ccccn2c1-c1cncc(Nc2ccc(C(F)(F)F)cc2)n1` [compound 191, 6-[2-(methylsulfanyl)imidazo[1,2-a]pyridin-3-yl]-N-[4-(trifluoromethyl)phenyl]pyrazin-2-amine], the concentration giving a half-maximal response (EC50) was 1 to 10 nM.

Take `Cc1nc2ccccc2n1-c1cc(N)cc(Nc2ccc(Cl)cc2)n1` [compound 633, N^2-(4-chlorophenyl)-6-(2-methyl-1H-benzimidazol-1-yl)pyridine-2,4-diamine]: the EC50 was in the range of 10 to 100 nM.

On to `Cc1nc2ccccc2n1-c1cncc(Nc2ccc(C(F)(F)F)cn2)n1` [compound 457, 6-(2-methyl-1H-benzimidazol-1-yl)-N-[5-(trifluoromethyl)pyridin-2-yl]pyrazin-2-amine], for which the EC50 is 100 to 3000 nM.

Regarding `FC(F)Oc1ccc(Nc2cncc(-c3c(C(F)(F)F)nc4ccccn34)n2)cc1` [Cpd 24, N-[4-(difluoromethoxy)phenyl]-6-[2-(trifluoromethyl)imidazo[1,2-a]pyridin-3-yl]pyrazin-2-amine], the EC50 is less than 1 nM.

As to `Cc1nc2ccccc2n1-c1cc(F)cc(Nc2ccc(C(F)(F)F)cc2[N+](=O)[O-])n1` [Cpd 493, 4-fluoro-6-(2-methyl-1H-benzimidazol-1-yl)-N-[2-nitro-4-(trifluoromethyl)phenyl]pyridin-2-amine], the EC50 lay in the range of 100 to 3000 nM.

In the case of `FC(F)Oc1ccc(Nc2cncc(-c3cnc4ccccn34)n2)cc1` [compound 477, N-[4-(difluoromethoxy)phenyl]-6-(imidazo[1,2-a]pyridin-3-yl)pyrazin-2-amine], the EC50 lay in the range of 100 to 3000 nM.

Regarding `FC(F)(F)Oc1ccc(Nc2cncc(-c3c(C(F)(F)F)nn4ccccc34)n2)cc1` [compound 63, N-[4-(trifluoromethoxy)phenyl]-6-[2-(trifluoromethyl)pyrazolo[1,5-a]pyridin-3-yl]pyrazin-2-amine], the EC50 was in the range of 10 to 100 nM.

For `Cc1nn(C)c(C)c1-c1cccc(Nc2ccc(OC(F)(F)F)cc2)n1` [compound 144, N-[4-(trifluoromethoxy)phenyl]-6-(1,3,5-trimethyl-1H-pyrazol-4-yl)pyridin-2-amine], the EC50 was 100 to 3000 nM.

For the compound `COc1ccc2nc(C)c(-c3cc(C#N)cc(Nc4ccc(C)cc4)n3)n2c1` [compound 673, 2-(6-methoxy-2-methylimidazo[1,2-a]pyridin-3-yl)-6-[(4-methylphenyl)amino]pyridine-4-carbonitrile], the EC50 lay within 100 to 3000 nM.

Staying with this experiment, now noted: read-out: ELISA EC50 value for Bmi-1 protein, Table 1, Bmi-1 sandwich ELISA.
Turning to `Nc1cc(Nc2ccc(C(F)(F)F)cc2)nc(-c2c(C(F)(F)F)nc3ccc(F)cn23)c1` [compound 287, 6-[6-fluoro-2-(trifluoromethyl)imidazo[1,2-a]pyridin-3-yl]-N^2-[4-(trifluoromethyl)phenyl]pyridine-2,4-diamine], the 50% effective concentration (EC50) lay in the range of 10 to 100 nM.

On to `Cc1c(-c2cncc(Nc3ccc(OC(F)F)cc3)n2)c(C(F)(F)F)nn1C` [compound 280, N-[4-(difluoromethoxy)phenyl]-6-[1,5-dimethyl-3-(trifluoromethyl)-1H-pyrazol-4-yl]pyrazin-2-amine], for which the EC50 is 10 to 100 nM.
